# Assay results from article PMC9963121, “Development of Combretastatin A-4 Analogues as Potential Anticancer Agents with Improved Aqueous Solubility” (Molecules, 2023).
# Where a name gives a salt, the structure may show the parent alone.
# System: AGS gastric cancer cell
# Assay: MTT cell growth inhibition assay, AGS gastric cancer cells
# Format: cell-based
# Conditions: Homo sapiens, mean ± SD of three experiments
# Text: (§1) Initially, we designed and synthesised seven compounds—9a and 12a1–12a6—and evaluated the anticancer activity and aqueous solubility. We evaluated the cytotoxic effects of these stilbene nitrile analogues against a panel of four human cancer cell lines (HCT-116, BEL-7402, MCF-7 and AGS) and two human non-cancerous normal cell lines (L-02 and MCF-10A), using CA-4 as a control. The compounds were screened for aqueous solubility in 0.01 M PBS using a high throughput UV method. […] It is possible that the size of the nitrogen heterocycle had little effect on the activity of these compounds. […] The aqueous solubility of all the compounds 12a1–12a6 was higher than that of 9a, particularly that of 12a1 and 12a2 containing piperazine rings. […] Of the six compounds with improved aqueous solubility, 12a1 had the best activity.
# (§2) All human cell lines were used in this study. AGS gastric cancer cell, BEL-7402 liver cancer cell, HCT-116 colorectal cancer cell, L-02 normal liver cell, MCF-7 breast cancer cell, and MCF-10A normal breast cell were initially purchased from American Type Culture Collection (ATCC, Manassas, VA, USA). RPMI-1640 media, DMEM and FBS, were provided by Gibco Company. The cells were maintained in DMEM or RPMI-1640, supplemented with 10% FBS, 100 IU/mL penicillin and […] streptomycin, and at 37 °C in a humidified atmosphere containing 5% CO2.
# (§3) The experiment was carried out according to the method of reference.
row,Structure (SMILES),IC50 [µM]
1,COc1ccc(/C(C#N)=C/c2ccc(N)cc2)cc1OC [9c],19.5 ± 3.61
2,"COc1ccc(/C(C#N)=C/c2ccc(N)cc2C)cc1OC [9d, (Z)-3-(4-Amino-2-methylphenyl)-2-(3,4-dimethoxyphenyl)acrylonitrile monohydrochloride]",16.4 ± 0.42
3,COc1cc(/C(C#N)=C/c2ccc(NC(=O)CN3CCCC3)cc2)cc(OC)c1OC [12a3],17.9 ± 1.75

# Compounds with a lower IC50, results first:
row,IC50 [µM],Structure (SMILES)
1,11.9 ± 2.62,CCN1CCN(CC(=O)Nc2ccc(/C=C(\C#N)c3cc(OC)c(OC)c(OC)c3)cc2)CC1 [12a2]
2,0.8 ± 0.14,COc1cc(/C(C#N)=C/c2ccc(N)cc2C)cc(OC)c1OC [9b]

# System: MCF-7 breast cancer cell
# Assay: MTT cell growth inhibition assay, MCF-7 breast cancer cells
# Format: cell-based
# Conditions: Homo sapiens, MCF7, mean ± SD of three experiments
# Text: as §1, §2, §3
row,Structure (SMILES),IC50 [µM]
1,COc1ccc(/C(C#N)=C/c2ccc(N)cc2)cc1OC [9c],62.1 ± 8.12
2,"COc1ccc(/C(C#N)=C/c2ccc(N)cc2C)cc1OC [9d, (Z)-3-(4-Amino-2-methylphenyl)-2-(3,4-dimethoxyphenyl)acrylonitrile monohydrochloride]",> 100
3,COc1cc(/C(C#N)=C/c2ccc(NC(=O)CN3CCCC3)cc2)cc(OC)c1OC [12a3],12.6 ± 0.91

# Second part, the compound after the results:
row,IC50 [µM],Structure (SMILES)
1,14.9 ± 1.32,CCN1CCN(CC(=O)Nc2ccc(/C=C(\C#N)c3cc(OC)c(OC)c(OC)c3)cc2)CC1 [12a2]
2,> 100,COc1cc(/C(C#N)=C/c2ccc(N)cc2C)cc(OC)c1OC [9b]

# System: HCT-116 colorectal cancer cell
# Assay: MTT cell growth inhibition assay, HCT-116 colorectal cancer cells
# Format: cell-based, human
# Conditions: Homo sapiens, HCT-116; MTT; mean ± SD of three experiments
# Text: as §1, §2, §3
row,Structure (SMILES),IC50 [µM]
1,COc1ccc(/C(C#N)=C/c2ccc(N)cc2)cc1OC [9c],4.05 ± 0.72
2,"COc1ccc(/C(C#N)=C/c2ccc(N)cc2C)cc1OC [9d, (Z)-3-(4-Amino-2-methylphenyl)-2-(3,4-dimethoxyphenyl)acrylonitrile monohydrochloride]",5.86 ± 0.77
3,COc1cc(/C(C#N)=C/c2ccc(NC(=O)CN3CCCC3)cc2)cc(OC)c1OC [12a3],2.56 ± 0.58

# The next lines start with the values.
row,IC50 [µM],Structure (SMILES)
1,5.37 ± 0.03,CCN1CCN(CC(=O)Nc2ccc(/C=C(\C#N)c3cc(OC)c(OC)c(OC)c3)cc2)CC1 [12a2]
2,0.16 ± 0.02,COc1cc(/C(C#N)=C/c2ccc(N)cc2C)cc(OC)c1OC [9b]

# System: BEL-7402 liver cancer cell
# Assay: MTT cell growth inhibition assay, BEL-7402 liver cancer cells
# Format: cell-based
# Conditions: Homo sapiens, mean ± SD of three experiments, read-out: IC50 BEL-7402 Hepatoma Cells
# Text: as §1, §2, §3
row,Structure (SMILES),IC50 [µM]
1,COc1ccc(/C(C#N)=C/c2ccc(N)cc2)cc1OC [9c],3.91 ± 0.8
2,"COc1ccc(/C(C#N)=C/c2ccc(N)cc2C)cc1OC [9d, (Z)-3-(4-Amino-2-methylphenyl)-2-(3,4-dimethoxyphenyl)acrylonitrile monohydrochloride]",9.72 ± 0.9
3,COc1cc(/C(C#N)=C/c2ccc(NC(=O)CN3CCCC3)cc2)cc(OC)c1OC [12a3],4.63 ± 0.89

# Further lines, results first:
row,IC50 [µM],Structure (SMILES)
1,5.1 ± 0.37,CCN1CCN(CC(=O)Nc2ccc(/C=C(\C#N)c3cc(OC)c(OC)c(OC)c3)cc2)CC1 [12a2]
2,0.16 ± 0.02,COc1cc(/C(C#N)=C/c2ccc(N)cc2C)cc(OC)c1OC [9b]

# System: MCF-10A normal breast cell
# Assay: MTT cell growth inhibition assay, MCF-10A normal breast cells
# Format: cell-based
# Conditions: Homo sapiens, mean ± SD of three experiments, read-out: IC50 MCF-10A Normal Breast Epithelial Cells
# Text: as §1, §2, §3
row,Structure (SMILES),IC50 [µM]
1,COc1cc(/C(C#N)=C/c2ccc(N)cc2C)cc(OC)c1OC [9b],> 100
2,COc1ccc(/C(C#N)=C/c2ccc(N)cc2)cc1OC [9c],> 100
3,"COc1ccc(/C(C#N)=C/c2ccc(N)cc2C)cc1OC [9d, (Z)-3-(4-Amino-2-methylphenyl)-2-(3,4-dimethoxyphenyl)acrylonitrile monohydrochloride]",> 100
4,CCN1CCN(CC(=O)Nc2ccc(/C=C(\C#N)c3cc(OC)c(OC)c(OC)c3)cc2)CC1 [12a2],25.8 ± 3.73
5,COc1cc(/C(C#N)=C/c2ccc(NC(=O)CN3CCCC3)cc2)cc(OC)c1OC [12a3],16.9 ± 1.24

# System: L-02 normal liver cell
# Assay: MTT cell growth inhibition assay, L-02 normal liver cells
# Format: cell-based
# Conditions: Homo sapiens, mean ± SD of three experiments
# Text: as §1, §2, §3
row,Structure (SMILES),IC50 [µM]
1,COc1cc(/C(C#N)=C/c2ccc(N)cc2C)cc(OC)c1OC [9b],6.01 ± 1.35
2,COc1ccc(/C(C#N)=C/c2ccc(N)cc2)cc1OC [9c],15.7 ± 1.79
3,"COc1ccc(/C(C#N)=C/c2ccc(N)cc2C)cc1OC [9d, (Z)-3-(4-Amino-2-methylphenyl)-2-(3,4-dimethoxyphenyl)acrylonitrile monohydrochloride]",62.1 ± 10.6
4,CCN1CCN(CC(=O)Nc2ccc(/C=C(\C#N)c3cc(OC)c(OC)c(OC)c3)cc2)CC1 [12a2],16.6 ± 1.14
5,COc1cc(/C(C#N)=C/c2ccc(NC(=O)CN3CCCC3)cc2)cc(OC)c1OC [12a3],11 ± 0.82

# System: not listed separately
# Assay: Aqueous solubility in 0.01 M PBS, high throughput UV method
# Format: physicochemical
# Conditions: aqueous phosphate buffer, aqueous buffer; sodium phosphate buffer 0.01 M, pH 7.4, 22 ± 2 °C; mean ± SD
# Text: as §1
# The aqueous solubility was determined as a previously reported procedure. Put simply, a certain amount of powdered compound was placed in a 2 mL centrifuge tube and mixed with an appropriate volume of aqueous phosphate buffer (10 mM, pH 7.4) to make the whole system supersaturated. The mixtures were sonicated (KQ5200DE numerical control ultrasonic cleaner, Kunshan Ultrasonic Instrument Co., Ltd., SuZhou, China) for 20 min. After sonication, the mixture was allowed to equilibrate at RT (22 ± 2 °C) for 1.5 h with vortex shaking (1200 rpm). Then centrifuged at 3000 rpm for 15 min (1-14k, sigma, Darmstadt, Germany), the supernatant was filtered with a 0.22 µM filter membrane. And then, take 150 µL of filtrate and add it to 96-well UV plate with triplicate. Draw 150 μL of blank solution was added into plate as blank control. The 96-well UV plate prepared above was read on a Synergy HTX Multifunctional Microplate Reader (BioTek, Vermont, USA) at 294 nm. The absorbance of the sample was corrected according to the UV response of the sample and blank solution, and the corrected UV response values were used for solubility calculations by bringing into the standard curve of the compound. […]
# 1.5. Solubility Assessment
# The aqueous solubility was determined as previously reported using the high throughput solubility screens procedure published by Bruno Bard et al [9. 10]. Put simply, a certain amount of powdered compound was placed in a 2 ml centrifuge tube and mixed with an appropriate volume of aqueous phosphate buffer (0.01 M, pH 7.4) to make the whole system supersaturated. The mixtures were sonicated (KQ5200DE numerical control ultrasonic cleaner, Kunshan Ultrasonic Instrument Co., Ltd., China) for 20 min. After sonication, the mixture was allowed to equilibrate at room temperature (22 ± 2°C) for 1.5 h with vortex shaking (1200 rpm). Then the centrifuge tube was put into the centrifuge (1-14k, sigma, Germany), centrifuged with 3000 rpm for 15 minutes, 0.22 µM filter membrane filtration supernatant, then take 150 µl filtrate and add it to 96-well UV plate, with three well for each compound. Draw 150 μL blank solution were added into 96 well-plate as blank control. The 96-well UV […]
# plate prepared above was read on a SynergyHTX Multifunctional microplate reader (BioTek, USA) at 338 nm (compounds 12a-12d and 15-20) or 370 nm (compounds 9a-d). The absorbance of the sample was corrected according to the UV response of the sample and blank solution, and the corrected UV responses value were used for solubility calculations by bring into the standard curve of the compound. […]
row,Structure (SMILES),solubility thermodynamic at 1.5 h [µg/mL]
1,COc1ccc(/C(C#N)=C/c2ccc(N)cc2)cc1OC [9c],4.5 ± 0.6
2,"COc1ccc(/C(C#N)=C/c2ccc(N)cc2C)cc1OC [9d, (Z)-3-(4-Amino-2-methylphenyl)-2-(3,4-dimethoxyphenyl)acrylonitrile monohydrochloride]",1.7 ± 0.2
3,COc1cc(/C(C#N)=C/c2ccc(NC(=O)CN3CCCC3)cc2)cc(OC)c1OC [12a3],67.4 ± 2.9

# Next, values leading:
row,solubility thermodynamic at 1.5 h [µg/mL],Structure (SMILES)
1,26940 ± 78.8,CCN1CCN(CC(=O)Nc2ccc(/C=C(\C#N)c3cc(OC)c(OC)c(OC)c3)cc2)CC1 [12a2]
2,1.2 ± 0.3,COc1cc(/C(C#N)=C/c2ccc(N)cc2C)cc(OC)c1OC [9b]

# Same assay, conditions: ratio to 9a
row,Decrease of aqueous solubility compared with 9a,Structure (SMILES)
1,nine times,COc1cc(/C(C#N)=C/c2ccc(N)cc2C)cc(OC)c1OC [9b]

# System: not given
# Assay: not given
# Conditions: not given
row,melting point [°C],Structure (SMILES)
1,224 to 230,COc1cc(/C(C#N)=C/c2ccc(N)cc2C)cc(OC)c1OC [9b]
